The values below come from patent US6903111B2 (priority 2001, dated 2005).

Bounds are passed on as bounds.

In turn, `O=C(C[C@H](Cc1ccccc1)NS(=O)(=O)C(F)(F)F)N1CC2CCC1CC2` displayed a melting point of 155 to 158 °C.
The same measure for `O=C(Nc1ccncc1)[C@H](CC(=O)N1CC2CCC1CC2)Cc1ccccc1`: 171 to 172 °C; for `O=C(O)C(=O)N[C@H](CC(=O)N1CC2CCC1CC2)Cc1ccccc1`: 156 to 159 °C.
The same measure for `O=C(O)CC(=O)N[C@H](CC(=O)N1CC2CCC1CC2)Cc1ccccc1`: 149 to 151 °C; for `CS(=O)(=O)N[C@H](CC(=O)N1CC2CCC1CC2)Cc1ccccc1`: 127 to 129 °C.
The same measure for `O=C(C[C@@H](Cc1ccccc1)NS(=O)(=O)C(F)(F)F)N1CC2CCC1CC2`: 128 to 130 °C; for `CS(=O)(=O)N[C@@H](CC(=O)N1CC2CCC1CC2)Cc1ccccc1`: 129 to 130 °C; for `O=C(Oc1ccc(NS(=O)(=O)C(F)(F)F)cc1)[C@H](CC(=O)N1CC2CCC1CC2)Cc1ccccc1`: 60 to 62 °C.
Consider `O=C(Nc1ccc(NS(=O)(=O)C(F)(F)F)cc1)[C@H](CC(=O)N1CC2CCC1CC2)Cc1ccccc1`, for which the melting point is 136 to 138 °C.
The same measure for `O=C(Nc1nccs1)[C@H](CC(=O)N1CC2CCC1CC2)Cc1ccccc1`: 69 to 72 °C.
`CCOc1cc(CC(=O)N[C@H](CC(=O)N2CC3CCC2CC3)Cc2ccccc2)ccc1C(=O)O` registered a melting point of 100 to 103 °C.
On to `O=C(Cc1ccc(NS(=O)(=O)C(F)(F)F)cc1)N[C@H](CC(=O)N1CC2CCC1CC2)Cc1ccccc1`, for which the melting point lay in the range of 78 to 80 °C.
For `O=C(Cc1ccc(NC(=O)C(=O)O)cc1)N[C@@H](CC(=O)N1CC2CCC1CC2)Cc1ccccc1`, the melting point lay in the range of 79 to 80 °C.
The figure for `O=C(O)C(=O)Nc1ccc(C(=O)N[C@@H](CC(=O)N2CC3CCC2CC3)Cc2ccccc2)cc1` is 200 to 201 °C.
As for `O=C(O)/C=C/[C@H](CC(=O)N1CC2CCC1CC2)Cc1ccccc1`, the melting point fell in the range of 52 to 53 °C.
`O=C(O)CC[C@H](CC(=O)N1CC2CCC1CC2)Cc1ccccc1` had a melting point of 79 to 81 °C.
The figure for `O=C(Nc1cc(F)c(O)c(F)c1)[C@H](CC(=O)N1CC2CCC1CC2)Cc1ccccc1` is 118 to 120 °C.
The figure for `O=C(O)C(C[C@H](CC(=O)N1CC2CCC1CC2)CC1CCCCC1)C(=O)O` is 84 to 85 °C; for `O=C(O)[C@H](CC(=O)N1CC2CCC1CC2)Oc1ccccc1` it is 140 to 142 °C.
The figure for `O=C(O)C(C[C@H](CC(=O)N1CC2CCC1CC2)Cc1ccccc1)C(=O)O` is 78 to 80 °C.
The compound `O=C(O)C(O)[C@H](CC(=O)N1CC2CCC1CC2)Cc1ccccc1` (stereo partly drawn) displayed a melting point of 60 to 61 °C.
The same measure for `O=C(Nc1nccs1)[C@H](CC(=O)N1CC2CCC1CC2)Oc1ccccc1`: 60 to 65 °C; for `O=C(C[C@H](Cc1ccccc1)Nc1c(O)c(=O)c1=O)N1CC2CCC1CC2`: 156 to 158 °C.
`O=C(C[C@@H](C=NOS(=O)(=O)O)Cc1ccccc1)N1CC2CCC1CC2` showed a melting point of 148 to 151 °C.
The figure for `O=C(O)[C@@H](CCOc1ccccc1)CC(=O)N1CC2CCC1CC2` is 117 to 119 °C; for `O=C(O)[C@H](CCOc1ccccc1)CC(=O)N1CC2CCC1CC2` it is 115 to 117 °C; for `O=C(O)[C@H](CC(=O)N1CC2CCC1CC2)Cc1ccccc1` [Compound 1, (2S)-2-benzyl-4-(isoquinuclidin-2-yl)-4-oxo-butanoic acid] it is 93 to 95 °C.
Turning to `O=C([O-])[C@H](CC(=O)N1CC2CCC1CC2)Cc1ccccc1.[Na+]` [Compound 11], the melting point was greater than 250 °C.
The figure for `O=C(OC1CCCCC1)[C@H](CC(=O)N1CC2CCC1CC2)Cc1ccccc1` [Compound 14] is 92 to 95 °C; for `O=C(Oc1ccccc1)[C@H](CC(=O)N1CC2CCC1CC2)Cc1ccccc1` [Compound 15, (2S)-2-benzyl-4-(isoquinuclidin-2-yl)-4-oxo-butanoic acid phenylester] it is 112 to 113 °C; for `O=C(Oc1ccc(O)cc1)[C@H](CC(=O)N1CC2CCC1CC2)Cc1ccccc1` [Compound 18, p-hydroxy phenyl (2S)-2-benzyl-4-(isoquinuclidine-2-yl)-4-oxo-butyrate] it is 61 to 64 °C.
`O=C(O)[C@H](CCN1CC2CCC1CC2)Cc1ccccc1` [Compound 47]: the melting point was 171 to 174 °C.
The figure for `CN(c1c(O)c(=O)c1=O)[C@H](CC(=O)N1CC2CCC1CC2)Cc1ccccc1` [Compound 52, N-(3-hydroxy-3-cyclobutene-1,2-dione-4-yl)-N-methyl-(1S)-[2-(isoquinuclidin-2-yl)-2-oxo-ethyl]-phenyl ethylamine] is 153 to 155 °C.

A word on the melting point: it is the temperature, or range, at which the solid turns liquid.
